Results from patent US12702671B2, “Calcineurin inhibitors of the setron family for the treatment of hearing loss” (SENSORION, priority 2015, dated 2026).
Entries after “also recorded” stand apart in the source; their conditions may differ. Counter-ions that a name gives are not always drawn.

Experiments:
[1] = test system: acoustic trauma induced hearing loss; test: Distortion product otoacoustic emissions (DPOAE) amplitudes after acoustic trauma; assay type: in vivo, Wistar rats; conditions: for DPOAE amplitude loss from baseline to day 14 compared to placebo / recovery of DPOAE amplitudes from 24 h post trauma to day 14 compared to placebo: i.p. daily for 14 days after acoustic trauma, same doses as E4
Experimental: (§1) All experiments were performed using 7 week old male Wistar rats (CERJ, Le Genest, France) in accordance with the French Ministry of Agriculture regulations and European Community Council Directive no. 86/609/EEC, OJL 358. The rats were fed a standard diet ad libitum and maintained on a 12 h light-dark cycle.
(§2) Auditory Brainstem Reponses (ABR) and Distortion Product Otoacoustic Emissions (DPOAE) were recording using a RZ6 Auditory Workstation (Tucker-Davis Technologies, Alachua, FL, USA) with animals deeply anesthetized using 90 mg/kg ketamine and 10 mg/kg xylazine and placed on a 35° C. recirculating heating pad inside a sound attenuating cubicle (Med Associates Inc., St. Albans, VT, USA) throughout the experiment.
DPOAEs were recorded and using ER10B+ Low Noise DPOAE microphone (Etymotic Research, Inc., Elk Grove Village, IL, USA) with acoustic stimuli delivered by two calibrated MF-1 speakers in closed-field configuration (Tucker-Davis Technologies, Alachua, FL, USA). DPOAEs were recorded at fixed stimulus levels (L1=L2=70 dB SPL), with an f2/f1 ratio of 1.2. Responses were recorded at 4, 8, 16, 24 and 32 kHz.
(§3) Animals were exposed to 121 dB octave band noise (8-16 kHz) for 2 h in groups of 4 rats, placed in individual compartments of a custom built circular cage placed on a 30 cm diameter platform rotating at 3 turns/minute (Aqila Innovation, Valbonne, France). The calibrated octave band noise generated by the RZ6 SigGen software was further amplified by a Crown D-75 amplifier in bridge mode (Crown Audio, Elkhart, IN, USA) and delivered by four Beyma CP16 compression tweeters (Acustica Beyma S. L., Moncada, Valencia, Spain) positioned 39 cm above the rotating platform, each 10 cm from the platform center.
(§4) Animals were treated by intraperitoneal injection daily for 14 days beginning immediately after acoustic trauma induction and subsequently repeated every 24 hours. The setron compounds granisetron HCl, ondansetron HCl, tropisetron HCl and azasetron HCl (Tocris Bioscience, Bristol, UK) were delivered dissolved in saline solution (1.6 mL/kg) while Tacrolimus (Selleck Chemicals, Houston, TX, USA) was dissolved in solution composed of 10% ethanol-100%/10% Kolliphor EL/1% Tween 80/79% saline (1.0 mL/kg). Placebo treated animals received injections of 1.6 mL/kg saline following the same treatment schedule.
(§5) Statistical analysis was performed using two-way ANOVA (Audiometry data: frequency and treatment group. Cochleograms: normalized distance from apex and treatment group) followed by Holm-Sidak post-hoc test for multiple comparisons. Results are given as mean±SEM and a p value less than or equal to 0.05 considered significant.
(§6) Baseline line audiometry (ABR and DPOAE measures) was performed for each animal 3 days before acoustic trauma was induced. Subsequently, audiometry measures were repeated 24 h and 14 days after acoustic trauma.
(§7) To quantify and compare the difference in treatment effects between groups while taking into account individual baseline and trauma variability, the hearing loss (ABR threshold shift & DPOAE amplitude loss) at D14 relative to baseline, as well as the functional recovery of hearing from 24 h to D14 (ABR threshold shift & DPOAE amplitude loss) were determined for all treatment groups.

[2] = test system: acoustic trauma induced hearing loss; test: Auditory brainstem response (ABR) thresholds after acoustic trauma; assay type: in vivo, Wistar rats; conditions: for hearing outcomes (ABR thresholds and DPOAE amplitudes) at 14 days after acoustic trauma compared to placebo / ABR threshold recovery from 24 h to day 14 compared to placebo: i.p. daily for 14 days after acoustic trauma, same doses as E4; for ABR threshold shift from baseline to day 14 compared to placebo: i.p. daily for 14 days from immediately after 121 dB trauma, azasetron HCl 4.22, ondansetron HCl 4, tropisetron HCl 3.5, granisetron HCl 3.8, Tacrolimus 1.5 mg/kg
Experimental: as §1, §2
For ABR recordings, three stainless steel needle electrodes were placed subdermally over the vertex, the right mastoid and right hind leg of each animal. Tone-pips (5 msec duration presented at a rate of 21/s) at 8, 16 and 24 kHz were delivered to the right ear using a calibrated MF-1 speaker in closed-field configuration (Tucker-Davis Technologies, Alachua, FL, USA) at attenuating intensity until no reproducible response could be recorded. Close to the ABR threshold, the responses to 1000 acoustic stimuli in 5 dB steps were averaged. Responses were low-pass filtered at 3 kHz.
as §3, §4, §5, §6, §7

calcineurin = test: Calcineurin phosphatase activity in cerebellar granule neurons after 4 DIV (malachite green colorimetric assay, Test A); assay type: cell-based, Wistar rat; conditions: for effect on calcineurin phosphatase activity: CGNs in K25 medium, 10, 100 or 1000 nM for 4 DIV, relative to K25 control (100%); for change of calcineurin inhibition with increasing concentration: CGNs, 4 DIV, 10-1000 nM
Experimental: According to Test A, phosphatase calcineurin activity is assessed in cerebellar granule neurons (CGNs) using a colorimetric assay kit based on quantification of the green complex formed between malachite green, molybdate and free phosphate released. CGNs are detached from plates, for example by scraping, rinsed in ice-cold tris buffer solution (TBS) and counted. About 10 million cells are lysed in 1 ml of the provided lysis buffer and centrifuged at 150,000×g at 4° C. for 45 min, and the supernatant may be stored at −70° C. until analysis. Prior to calcineurin activity assay, free phosphate and nucleotides are removed from cellular extract by gel filtration. To ensure the complete removal of phosphate, malachite green reagent may be added, which will turn the color green in presence of phosphate. A specific calcineurin substrate is added to phosphate-free cellular extracts and after appropriate incubation period, malachite green reagent is applied. The rapid green color formation from the reaction is measured, for example on a spectrophotometer. The developed color is proportional to the calcineurin phosphatase activity of samples. Absorbance values, read at 620 nm, may thus be transformed to percentage calcineurin activity relative to K25 control treatment (100%). Cerebellar granule cells were dissociated from the cerebellae of 7-day-old Wistar rat pups as described (Kramer et al. 2003, Mol Cell Neurosci 23:325-330). Briefly, the cerebellae were removed, rinsed in HBSS-BSA, minced, digested with 0.025% trypsin and incubated at 37° C. for 15 min. To stop the digestion, DMEM containing 10% fetal calf serum was added; then a single cell suspension was obtained through pipetting up and down the sedimented tissue. Following centrifugation, cells were counted using trypan blue exclusion test in a Burker chamber. This method is based on the ability of viable cells to exclude trypan blue due to their intact cell membranes, leaving them unstained while nonviable cells take up the dye. Cells at 3.2×10^5/cm^2 were seeded in DMEM Hepes modification supplemented with 10% fetal calf serum, 100 μg/ml pyruvate, and 100 μg/ml gentamicin on Polystyrene 12-well tissue culture plates (CELLSTAR) coated with poly-L-lysine. After 24 h, 10 μM cytosine arabinofuranoside was added to inhibit the growth of non-neuronal cells. All pharmacological interventions begun at this time in the culture medium containing 25 mM KCl (K25), which caused depolarization of granule cells and consequently activated gene expression machinery. Moreover, the viability of granule neurons was higher in this milieu and therefore provides the possibility to maintain cells for several days. Indeed, 25 mM KCl is required in the medium for CGN cultures to maintain adequate calcineurin activity and cell maturation and depolarization (Kramer et al., 2003, Mol Cell Neurosci 23:325-330; Vallano et al. 2006, Neuropharmacology 50: 651-660). Cultures received simple medium (K25 control) or medium containing a setron compound in HCl salt form (Tocris Bioscience, Bristol, UK) at concentrations of 10 nM, 100 nM or 1000 nM for 4 days in vitro (DIV). Phosphatase calcineurin activity was assessed in CGNs using a colorimetric assay kit based on quantification of the green complex formed between malachite green, molybdate and free phosphate released. CGNs were detached from plates by scraping, rinsed in ice-cold tris buffer solution (TBS) and counted. About 10 million cells are lysed in 1 ml of the provided lysis buffer and centrifuged at 150,000×g at 4° C. for 45 min, and the supernatant was stored at −70° C. until analysis. Prior to calcineurin activity assay, free phosphate and nucleotides were removed from cellular extract by gel filtration. To ensure the complete removal of phosphate, malachite green reagent was added, which will turn the color green in presence of phosphate. […]

outer hair cells = test: Outer hair cell loss (cytocochleograms) in cochleae fixed at D14 after acoustic trauma; assay type: in vivo, Wistar rats; conditions: cochleae fixed after audiometry on day 14
Experimental: as §3, §4
After audiometry on day 14, animals were deeply anaesthetized with an intraperitoneal injection of pentobarbital (100 mg/kg). The cochleae were removed, fixed with 4% paraformaldehyde, pH 7.4, decalcified with 10% EDTA, pH 7.4 and then stained with myosin VIIa 1/1000. […] The mean loss of OHCs per group was subsequently calculated as a function of normalized distance from the apex in bins of 2.5% of the total length, using the total length of each histological specimen. Cell counts could reliably be obtained for up to 90% of the total distance from the apex (corresponding to the tonotopic region up to from 0 kHz to ~50 kHz in rat, Viberg & Canlon 2004), while the last 10% was too variable due to damage incurred during dissection.
as §5
To further support the conclusions from the functional audiometry data, the loss of outer hair cells in four treatment group was determined by constructing cytocochleograms from histological preparations of cochleae fixed after audiometry on day 14.

[3] = test system: noise-induced hearing loss; conditions: Uemaetomari et al. 2005; Bas et al. 2009; cited from earlier work
[4] = Animal deaths during 14-day repeated treatment in the acoustic trauma study; assay type: in vivo, Wistar rats; conditions: Tacrolimus 1.5 mg/kg i.p. daily for 14 days
Experimental: as §1, §4, §6
FIGS. 2 & 3 illustrate the audiometry measures (ABR thresholds and DPOAE amplitudes) determined for all treatment groups at baseline, 24 h and 14 days after acoustic trauma. For ABR thresholds exceeding 90 dB, a maximal value of 95 dB was attributed. […]

[5] = day 14, i.p. daily for 14 days after acoustic trauma

Cc1nccn1CC1CCc2c(c3ccccc3n2C)C1=O (stereo not drawn) [ondansetron HCl]
reduction of DPOAE amplitudes loss compared to placebo treatment [1, 5]: 10-30%
DPOAE amplitude loss from baseline to day 14 compared to placebo [1]: trend towards reduced loss of DPOAE amplitude
recovery of DPOAE amplitudes from 24 h post trauma to day 14 compared to placebo [1]: improved recovery
reduction of ABR threshold shifts compared to placebo treatment [2, 5]: 10-30%
hearing outcomes (ABR thresholds and DPOAE amplitudes) at 14 days after acoustic trauma compared to placebo [2]: improvement at some frequencies
ABR threshold shift from baseline to day 14 compared to placebo [2]: lower ABR threshold shift
effect on calcineurin phosphatase activity (calcineurin): significantly inhibited
change of calcineurin inhibition with increasing concentration (calcineurin): decreased with increasing concentration

Cn1cc(C(=O)[C@@H]2CCc3nc[nH]c3C2)c2ccccc21 [ramosetron HCl]
effect on calcineurin phosphatase activity (calcineurin): significantly inhibited
change of calcineurin inhibition with increasing concentration (calcineurin): increased to different degree with increasing concentrations

CN1C2CCCC1CC(NC(=O)c1nn(C)c3ccccc13)C2 (stereo not drawn) [granisetron HCl]
DPOAE amplitude loss from baseline to day 14 compared to placebo [1]: trend towards increased DPOAE amplitude loss
recovery of DPOAE amplitudes from 24 h post trauma to day 14 compared to placebo [1]: reduced recovery
DPOAE amplitude loss from baseline to day 14 compared to placebo ([1]; listed as granisetron): trend towards worse DPOAE amplitudes
mean loss of outer hair cells compared to placebo (outer hair cells): Neither the granisetron HCl nor the tacrolimus treated groups were significantly different from placebo
mean loss of outer hair cells compared to placebo (outer hair cells; listed as granisetron): trend towards worse
ABR threshold recovery from 24 h to day 14 compared to placebo [2]: decreased threshold recovery
hearing outcomes (ABR thresholds and DPOAE amplitudes) at 14 days after acoustic trauma compared to placebo [2]: worse ABR thresholds and DPOAE amplitudes
ABR threshold shift from baseline to day 14 compared to placebo [2]: strong trends towards higher ABR threshold shifts
effect on calcineurin phosphatase activity (calcineurin): no effect

cyclosporine A
effect on hearing loss in pre-clinical models of noise-induced hearing loss [3]: reduce hearing loss

C=CC[C@@H]1/C=C(\C)C[C@H](C)C[C@H](OC)[C@H]2O[C@@](O)(C(=O)C(=O)N3CCCC[C@H]3C(=O)O[C@H](/C(C)=C/[C@@H]3CC[C@@H](O)[C@H](OC)C3)[C@H](C)[C@@H](O)CC1=O)[C@H](C)C[C@@H]2OC [tacrolimus]
DPOAE amplitude loss from baseline to day 14 compared to placebo [1]: trend towards reduced loss of DPOAE amplitude; also recorded: trends towards improving DPOAE amplitude loss at some frequencies
recovery of DPOAE amplitudes from 24 h post trauma to day 14 compared to placebo [1]: improved recovery
effect on hearing loss in pre-clinical models of noise-induced hearing loss [3]: reduce hearing loss
mean loss of outer hair cells compared to placebo (outer hair cells): Neither the granisetron HCl nor the tacrolimus treated groups were significantly different from placebo
hearing outcomes (ABR thresholds and DPOAE amplitudes) at 14 days after acoustic trauma compared to placebo [2]: improvement at some frequencies
ABR threshold shift from baseline to day 14 compared to placebo [2]: no major effect
animals that died between treatment initiation and end of the study [4]: 5 animals out of 11

CN1[C@@H]2CC[C@H]1C[C@@H](OC(=O)c1c[nH]c3ccccc13)C2 [tropisetron HCl]
DPOAE amplitude loss from baseline to day 14 compared to placebo [1]: trend towards increased DPOAE amplitude loss
recovery of DPOAE amplitudes from 24 h post trauma to day 14 compared to placebo [1]: reduced recovery
DPOAE amplitude loss from baseline to day 14 compared to placebo ([1]; listed as tropisetron): trend towards worse DPOAE amplitudes
mean loss of outer hair cells compared to placebo (outer hair cells): trend towards worse
ABR threshold recovery from 24 h to day 14 compared to placebo [2]: decreased threshold recovery
hearing outcomes (ABR thresholds and DPOAE amplitudes) at 14 days after acoustic trauma compared to placebo [2]: worse ABR thresholds and DPOAE amplitudes
ABR threshold shift from baseline to day 14 compared to placebo [2]: strong trends towards higher ABR threshold shifts
effect on calcineurin phosphatase activity (calcineurin): significantly inhibited
change of calcineurin inhibition with increasing concentration (calcineurin): increased to different degree with increasing concentrations
